Reference: patent US7696238B2, “Substituted benzo[d]isoxazol-3-yl amine compounds as analgesics” (Gruenenthal GmbH, priority 2005, dated 2010)

Molecular target: T1, KCNQ2/3 ion channel (KCNQ2/3-expressing CHO-K1 cells) (Homo sapiens, UniProt O43525+O43526)
T1 construct: expressed in transfected cells; host or cells: CHO-K1
Experiment: Fluorescence assay (FLIPR instrument, membrane potential dye) for substances acting agonistically on the KCNQ2/3 ion channel
Format: cell-based
Details: difference between maximum and minimum values, agonistic action detected from a value of −40 (and below)
Experimental: Pharmacological Test Methods I. Fluorescence Assay (FLIPR™ Instrument) for the Identification of Substances Acting Agonistically on the KCNQ2/3 Ion Channel
On the day before the experiment, KCNQ2/3-expressing CHO-K1 cells and CHO-K1 empty strain cells were seeded out onto coated poly-D-lysine black/clear plates (Falcon/BD Company; Order No.: 356640) in a concentration of 20000 cells/100 μl MEM alpha, 50 ml FCS, 5.5 ml PIS/G/solution (100×) and then incubated for 20-24 hours in an incubator (37° C., 5% CO2). On the day of the experiment the HBSS/hepes working solution and the FMP/HBSS/hepes mixture (Membrane Potential Assay Kit Red (FMP), bulk format Cat. No. R8123) were initially prepared according to the following protocol:
• 1000 ml 1× HBSS buffer (Hank's Balanced Salt Solution (1×) (Gibco; No. 14025)+10 ml hepes (1M stock solution, pH 7.4; hepes Na salt (Sigma Company; No. H7006-500 g; storage at 4° C. in a refrigerator) 2. 1× FMP/HBSS/hepes working solution: • 6 ml HBSS/hepes buffer are added to 5 ml of the FMP solution stored at −20° C. (preparation see below; thawing out at room temperature). The test substances (2 mM batch solution in 100% DMSO) contained in drug plates (Costar 96-well plates, catalogue No. 3795) were then diluted by adding HBSS/hepes buffer to a concentration of 30 μM (3× concentrated). The assay plates on which the cells grow were washed once with 200 μl HBSS/hepes (Cellwash Washer, Labsystems Company, catalogue No. 5161550) and the remaining volume was removed by tapping out the inverted plate twice. 100 μl of the FMP/HBSS/hepes working solution were then added in each case to the cell plates and incubated for 1 hour in the CO2 incubator at 37° C. and 5% CO2. The measurements are then carried out with a FLIPR III instrument from the Molecular Devices company (96-format, using the 540-590 nm band-pass filter in the #2 localization). In the experimental setup of the FLIPR software, filter #2 should be selected. The cell plates and the substance plates were fed alternately into the input stack. A signal test was carried out in each case with the cell plates before adding the substance. The test substances were then added via the pipetting unit of the FLIPR (added volume 50 μl, 3× concentrated, end concentration 10 μM) to the cavities of the cell plates in a total volume of 150 μl/well. The threshold data of the FLIPR program were as follows:
The pipette tips were washed after each pipetting procedure 3 times with 1% DMSO in water. The times of the measurement intervals after addition of the test substances are as follows:
Total measurement time: 6 min/plate
The test samples were evaluated by calculating the difference between the maximum and minimum values. EC50/IC50 values are calculated using the Graph Pad Prism software.
Preparation of the membrane potential loading buffer (membrane potential assay kit red (FMP), bulk format cat. No. R8123) according to the manufacturer's instructions:
10 ml of the 10× assay buffer (component B) were diluted with 90 ml of sterile water and then adjusted to pH 7.4 with 1.0N NaOH (1× assay buffer). One vessel with the FLIPR membrane potential assay component A was completely dissolved in 100 ml 1× assay buffer and thoroughly mixed for 10 minutes with a magnetic stirrer. 5 ml aliquots were then stored at −20° C. (storage shelf life ca. 2 weeks).
An agonistic action can be detected starting from a value of −40 (and below).

Compared with `CN(C)c1cccc2onc(NC(=S)Nc3cccc(Cl)c3)c12` [Example 56, 1-(3-chlorophenyl)-3-(4-dimethylaminobenzo[d]isoxazol-3-yl)-thiourea], `Cc1ccc(NC(=S)Nc2noc3cccc(N(C)C)c23)cc1` [Example 55, 1-(4-dimethylamino-benzo[d]-isoxazol-yl)-3-p-tolyl-thiourea] is lower in “FLIPR membrane potential fluorescence change (ΔF %, max minus min); negative values indicate KCNQ2/3 agonism” value: −55% for the first, −84% for the second.

First: CC(C)CNC(=S)Nc1noc2cccc(N(C)C)c12 [Example 54, 1-(4-dimethylamino-benzo[d]isoxazol-3-yl)-3-isobutyl-thiourea]
Second: COCCCNC(=S)Nc1noc2cccc(N(C)C)c12 [Example 65, 1-(4-dimethylamino-benzo[d]isoxazol-3-yl)-3-(3-methoxypropyl)-thiourea]
The “FLIPR membrane potential fluorescence change (ΔF %, max minus min); negative values indicate KCNQ2/3 agonism” value of the first is higher: −64% for the first, −79% for the second.

First: Cc1ccc2onc(NC(=S)Nc3ccc(C(F)(F)F)cc3)c2c1 [Example 96, 1-(5-methylbenzo[d]isoxazol-3-yl)-3-(4-trifluoromethylphenyl)-thiourea]
Second: Cc1ccc(NC(=S)Nc2noc3c(F)cccc23)cc1 [Example 124, 1-(7-fluorobenzo[d]isoxazol-3-yl)-3-p-tolyl-thiourea]
The “FLIPR membrane potential fluorescence change (ΔF %, max minus min); negative values indicate KCNQ2/3 agonism” value of the first is lower: −57% for the first, −50% for the second.

Going from `Cc1ccccc1NC(=S)Nc1noc2cccc(Cl)c12` [Example 51, 1-(4-chlorobenzo[d]isoxazol-3-yl)-3-o-tolyl-thiourea] to `Cc1ccc2onc(NC(=S)Nc3ccccc3C(C)C)c2c1` [Example 95, 1-(2-isopropylphenyl)-3-(5-methyl-benzo[d]isoxazol-3-yl)-thiourea], the “FLIPR membrane potential fluorescence change (ΔF %, max minus min); negative values indicate KCNQ2/3 agonism” value falls from −50% to −64%.

Compared with `COc1ccc(NC(=S)Nc2noc3cccc(OCC(F)(F)F)c23)cc1` [Example 84, 1-(4-methoxyphenyl)-3-[4-(2,2,2-trifluoroethoxy)-benzo[d]isoxazol-3-yl]-thiourea], `CN(C)c1ccc(NC(=S)Nc2noc3cccc(OCC(F)(F)F)c23)cc1` [Example 92, 1-(4-dimethylaminophenyl)-3-[4-(2.2,2-trifluoroethoxy)-benzo[d]isoxazol-3-yl]-thiourea] is lower in “FLIPR membrane potential fluorescence change (ΔF %, max minus min); negative values indicate KCNQ2/3 agonism” value: −40% for the first, −51% for the second.

First: S=C(Nc1noc2ccccc12)NC1CCCCC1 [Example 23, 1-benzo[d]isoxazol-3-yl-3-cyclohexyl-thiourea]
Second: Cc1ccc(COc2cccc3onc(NC(=S)NC4CCCCC4)c23)cc1 [Example 90, 1-cyclohexyl-3-[4-(4-methylbenzyloxy)-benzo[d]isoxazol-3-yl]-thiourea]
The “FLIPR membrane potential fluorescence change (ΔF %, max minus min); negative values indicate KCNQ2/3 agonism” value of the first is higher: −40% for the first, −41.5% for the second.

First: CCc1ccccc1NC(=S)Nc1noc2ccc(Br)cc12 [Example 100, 1-(5-bromobenzo[d]isoxazol-3-yl)-3-(2-ethylphenyl)-thiourea]
Second: CCOc1ccc(NC(=S)Nc2noc3ccccc23)cc1 [Example 31, 1-benzo[d]isoxazol-3-yl-3-(4-ethoxyphenyl)-thiourea]
The “FLIPR membrane potential fluorescence change (ΔF %, max minus min); negative values indicate KCNQ2/3 agonism” value of the first is higher: −42% for the first, −49% for the second.

Compared with `COc1cc(NC(=S)Nc2noc3cccc(OCC(F)(F)F)c23)cc(OC)c1OC` [Example 135, 1-[4-(2,2,2-trifluoroethoxy)-benzo[d]isoxazol-3-yl]-3-(3,4,5-trimethoxyphenyl)-thiourea], `COc1ccc(NC(=S)Nc2noc3cccc(OC)c23)c(OC)c1` [Example 134, 1-(2,4-dimethoxyphenyl)-3-(4-methoxybenzo[d]isoxazol-3-yl)-thiourea] is higher in “FLIPR membrane potential fluorescence change (ΔF %, max minus min); negative values indicate KCNQ2/3 agonism” value: −47.5% for the first, −42% for the second.

Going from `Fc1ccc2c(NCc3ccc(SC(F)(F)F)cc3)noc2c1` [Example 172, (6-fluorobenzo[d]isoxazol-3-yl)-(4-trifluoromethyl-sulfanyl-benzyl)-amine] to `FC(F)(F)Oc1ccc(CNc2noc3ccccc23)cc1` [Example 158, benzo[d]isoxazol-3-yl-(4-trifluoromethoxybenzyl)-amine], the “FLIPR membrane potential fluorescence change (ΔF %, max minus min); negative values indicate KCNQ2/3 agonism” value rises from −68% to −53%.

Compared with `COc1ccc(NC(=S)Nc2noc3cc(Br)ccc23)cc1OC` [Example 108, 1-(6-bromobenzo[d]isoxazol-3-yl)-3-(3.4-dimethoxyphenyl)-thiourea], `COc1cccc(NC(=S)Nc2noc3cc(Cl)ccc23)c1` [Example 107] is lower in “FLIPR membrane potential fluorescence change (ΔF %, max minus min); negative values indicate KCNQ2/3 agonism” value: −53.5% for the first, −80% for the second.

Going from `COC(=O)C(C)NC(=S)Nc1noc2ccc(F)cc12` (centres unmarked) [Example 97, 2-[3-(5-fluorobenzo(d]isoxazol-3-yl)-thioureido]-propionic acid methyl ester] to `COC(=O)CNC(=S)Nc1noc2ccc(C)cc12` [Example 94, [3-(5-methylbenzo[d]isoxazol-3-yl)-thioureido]-acetic acid methyl ester], the “FLIPR membrane potential fluorescence change (ΔF %, max minus min); negative values indicate KCNQ2/3 agonism” value rises from −58.5% to −47%.

Compared with `CC(C)c1cccc(C(C)C)c1NC(=S)Nc1noc2cc(F)ccc12` [Example 114, 1-(2,6-diisopropylphenyl)-3-(6-fluorobenzo[d]isoxazol-3-yl)-thiourea], `Cc1cc(C)cc(NC(=S)Nc2noc3cccc(N(C)C)c23)c1` [Example 63, 1-(4-dimethylamino-benzo[d]isoxazol-3-yl)-3-(3,5-dimethylphenyl)-thiourea] is lower in “FLIPR membrane potential fluorescence change (ΔF %, max minus min); negative values indicate KCNQ2/3 agonism” value: −54% for the first, −56% for the second.

First: Fc1cccc2c(NCc3cccc(OC(F)(F)F)c3)noc12 [Example 203, (7-fluorobenzo[d]isoxazol-3-yl)-(3-trifluoromethoxy-benzyl)-amine]
Second: C=CCNC(=S)Nc1noc2c(F)cccc12 [Example 123, 1-allyl-3-(7-fluorobenzo[d]-isoxazol-3-yl)-thiourea]
The “FLIPR membrane potential fluorescence change (ΔF %, max minus min); negative values indicate KCNQ2/3 agonism” value of the first is higher: −49% for the first, −55% for the second.

Going from `C=CCNC(=S)Nc1noc2ccc(C)cc12` [Example 93, 1-allyl-3-(5-methylbenzo[d]isoxazol-3-yl)-thiourea] to `CN(C)c1cccc2onc(NC(=S)NCc3ccccc3)c12` [Example 64, 1-benzyl-3-(4-dimethylamino-benzo[d]isoxazol-3-yl)-thiourea], the “FLIPR membrane potential fluorescence change (ΔF %, max minus min); negative values indicate KCNQ2/3 agonism” value falls from −45.5% to −52%.

Compared with `COc1cccc2onc(NC(=S)NCc3ccc(Cl)cc3)c12` [Example 129, 1-(4-chlorobenzyl)-3-(4-methoxy-benzo[d)isoxazol-3-yl)-thiourea], `COc1cccc2onc(NC(=S)NC(C)c3ccccc3)c12` (centres unmarked) [Example 128, 1-(4-methoxybenzo[d]isoxazol-3-yl)-3-(1-phenylethyl)-thiourea] is lower in “FLIPR membrane potential fluorescence change (ΔF %, max minus min); negative values indicate KCNQ2/3 agonism” value: −42% for the first, −47% for the second.

First: Cc1cc(C)cc(CNc2noc3cc(F)ccc23)c1 [Example 169, (3,5-dimethylbenzyl)-(6-fluorobenzo[d]isoxazol-3-yl)-amine]
Second: Fc1c(Cl)cccc1CNc1noc2cccc(Cl)c12 [Example 200, (4-chlorobenzo[d]isoxazol-3-yl)-(3-chloro-2-fluoro-benzyl)-amine]
The “FLIPR membrane potential fluorescence change (ΔF %, max minus min); negative values indicate KCNQ2/3 agonism” value of the first is higher: −63.25% for the first, −74% for the second.
